These results are taken from publication PMC8615521, “Mitochondria-Mediated Apoptosis of HCC Cells Triggered by Knockdown of Glutamate Dehydrogenase 1: Perspective for Its Inhibition through Quercetin and Permethylated Anigopreissin A” (Biomedicines, 2021).

Broadly, the IC50 is the concentration that inhibits the measured activity by half. A high value points to a need for much substance. One may read the inhibition as the percentage by which the read-out fell short of the control. By Ki is commonly meant the equilibrium dissociation constant of an inhibitor or competing ligand from its target. A higher Ki goes with a looser hold on the target.

For assay [1], the target named is T1, GDH1 from bovine liver (glutamate dehydrogenase 1) (Bos taurus, UniProt P00366).
T1 construct: gene GLUD1; purified bovine liver GDH (Sigma Aldrich, Type II)
T1 sequence (P00366 58-558): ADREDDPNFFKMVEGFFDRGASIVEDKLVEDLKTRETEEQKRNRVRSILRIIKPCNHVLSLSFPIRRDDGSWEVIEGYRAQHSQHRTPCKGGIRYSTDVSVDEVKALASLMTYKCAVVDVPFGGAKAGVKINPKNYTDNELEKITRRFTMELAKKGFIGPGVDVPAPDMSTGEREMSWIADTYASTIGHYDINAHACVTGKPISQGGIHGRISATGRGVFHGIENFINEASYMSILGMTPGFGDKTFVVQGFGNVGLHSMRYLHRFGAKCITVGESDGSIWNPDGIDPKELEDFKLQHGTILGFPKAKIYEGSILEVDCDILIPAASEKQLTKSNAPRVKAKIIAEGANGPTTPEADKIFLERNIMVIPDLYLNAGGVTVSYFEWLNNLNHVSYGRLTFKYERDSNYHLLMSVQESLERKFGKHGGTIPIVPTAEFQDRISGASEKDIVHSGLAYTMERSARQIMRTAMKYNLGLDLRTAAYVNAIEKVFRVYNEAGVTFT
Briefly: spectrophotometric NADH oxidation assay ([…] nm), reference inhibitor measured by the authors. It counts as biochemical.

The target in assay [2] is T2, hGDH1 (human glutamate dehydrogenase 1) (Homo sapiens, UniProt P00367).
T2 construct: gene GLUD1; GDH activity in HepG2 cellular extract
T2 sequence (P00367 54-558): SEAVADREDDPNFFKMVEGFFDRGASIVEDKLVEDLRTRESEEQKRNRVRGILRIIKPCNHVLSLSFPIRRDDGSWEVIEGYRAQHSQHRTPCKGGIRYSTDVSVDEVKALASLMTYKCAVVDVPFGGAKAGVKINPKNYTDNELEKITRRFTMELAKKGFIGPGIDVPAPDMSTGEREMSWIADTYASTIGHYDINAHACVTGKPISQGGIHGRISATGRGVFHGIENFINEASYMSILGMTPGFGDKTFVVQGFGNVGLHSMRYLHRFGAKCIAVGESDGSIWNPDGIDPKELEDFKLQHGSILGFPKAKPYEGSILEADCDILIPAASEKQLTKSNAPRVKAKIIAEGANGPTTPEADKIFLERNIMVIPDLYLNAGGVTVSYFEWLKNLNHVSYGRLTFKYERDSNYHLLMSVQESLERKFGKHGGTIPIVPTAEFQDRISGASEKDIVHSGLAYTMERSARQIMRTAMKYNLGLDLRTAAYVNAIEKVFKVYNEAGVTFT
Kind of assay: GDH activity in HepG2 cell extract (NADH, […] nm). It counts as cell-based. Particulars: HepG2, read-out: % inhibition at 8 μM %.

In assay [3] the target is T1, GDH1 from bovine liver (glutamate dehydrogenase 1). Kind of assay: spectrophotometric NADH oxidation assay ([…] nm), Lineweaver-Burk and secondary plots. Type of assay: biochemical.

`O=C(O[C@@H]1Cc2c(O)cc(O)cc2O[C@@H]1c1cc(O)c(O)c(O)c1)c1cc(O)c(O)c(O)c1` [EGCG, Epigallocatechin gallate] yielded an IC50 in assay [1] of approximately 2 µM.

As to `O=c1c(O)c(-c2ccc(O)c(O)c2)oc2cc(O)cc(O)c12` [quercetin], the inhibition at 8 µM in assay [2] is approximately 56%. The affinity in assay [3], expressed as Ki, was 9.2 µM.

In assay [3], Permethylated Anigopreissin A [PAA] had a Ki of 10 µM.
